Assay results reported in US8354402B2, “Polyarylcarboxamides useful as lipid lowering agents” (Janssen Pharmaceutica N.V., priority 2000, dated 2013).

Tested on: ApoB secretion, HepG2 cells
Assay: Quantification of the secretion of ApoB (HepG2 cells, immunoprecipitation, scintillation counting)
Type: cell-based
Conditions: Homo sapiens, HepG2, 24 h, 24 hours of incubation
Description: C.1. Quantification of the Secretion of ApoB
HepG2 cells were cultured in 24-well plates in Minimal Essential Medium Rega 3 containing 10% fetal calf serum. Rega 3 has the following composition: CaCl2 (264 μg/ml), KCl (400 μg/ml), MgSO4.7H2O (200 μg/ml), NaCl (6800 μg/ml), NaHCO3 (850 μg/ml), NaH2PO4.H2O (158 μg/ml), D-glucose (1000 μg/ml), phenol red (10 μg/ml), L-alanine (8.9 μg/ml), L-arginine HCl (12 μg/ml), L-asparagine.H2O (15 μg/ml), L-aspartic acid (13.3 μg/ml), L-cystine (24 μg/ml), L-glutamic acid (14.7 μg/ml), glycine (7.5 μg/ml), L-histidine.HCl .H2O (42 μg/ml), L-isoleucine (52 μg/ml), L-leucine (52 μg/ml), L-lysine.HCl (72.5 μg/ml), L-methionine (15 μg/ml), L-phenylalanine (32 μg/ml), L-proline (11.5 μg/ml), L-serine (10.5 μg/ml), L-threonine (48 μg/ml), L-tryptophan (10 μg/ml), L-tyrosine (36 μg/ml), L-valine (46 μg/ml), D-Ca pantothenate (1 μg/ml), choline chloride (1 μg/ml), folic acid (1 μg/ml), 1-enositol (2 μg/ml), nicotinamide (1 μg/ml), pyridoxal HCl (1 μg/ml), riboflavin (0.1 μg/ml) and thiamine HCl (1 μg/ml).
At 70% confluency, the medium was changed and the test compound or carrier (dimethylsulfoxide, 0.4% final concentration) was added. After 24 hours of incubation, the medium was transferred to Eppendorf tubes and cleared by centrifugation. A sheep antibody directed against either apo B was added to the supernatant and the mixture was kept at 8° C. for 24 hours. Then, rabbit anti-sheep antibody was added and the immune complex was allowed to precipitate for 24 hours at 8° C. The immunoprecipitate was pelleted by centrifugation for 25 minutes at 1320 g and washed twice with a buffer containing 40 mM 4-morpholinepropanesulfonic acid, 40 mM NaH2PO4, 100 mM NaF, 0.2 mM dithiothreitol, 5 mM ethylenediamine tetraacetic acid, 5 mM ethylenebis (oxyethylenenitrilo) tetraacetic acid, 1% Triton-X-100, 0.5% sodium deoxycholate, 0.1% sodium dodecylsulphate, 0.2 μM leupeptin and 0.2 μM phenylmethylsulphonylfluoride. Radioactivity in the pellet was quantified by liquid scintillation counting.
Resulting IC50 values are enumerated in Table C.1 for a number of compounds No. 1 to No. 123.

| IC50 [nM] | SMILES |
| --- | --- |
| 10.3 | C=CCNC(=O)C(c1ccccc1)N1CCC(c2ccc(NC(=O)c3ccccc3-c3ccc(C(F)(F)F)cc3)cc2)CC1 (stereo not drawn) [Co. No. 71] |
| ≤ 30 | O=C(Nc1ccc(C2CCN(C(C(=O)NC3CC3)c3ccccc3)CC2)cc1)c1ccccc1-c1ccc(C(F)(F)F)cc1 (stereo not drawn) [Co. No. 72] |
| 6.08 | CCCCNC(=O)C(c1ccccc1)N1CCC(c2ccc(NC(=O)c3ccccc3-c3ccc(C(F)(F)F)cc3)cc2)CC1 (stereo not drawn) [Co. No. 73] |
| ≤ 30 | CC(C)CNC(=O)C(c1ccccc1)N1CCC(c2ccc(NC(=O)c3ccccc3-c3ccc(C(F)(F)F)cc3)cc2)CC1 (stereo not drawn) [Co. No. 74] |
| 51.8 | O=C(Nc1ccc(C2CCN(C(C(=O)NCc3cccnc3)c3ccccc3)CC2)cc1)c1ccccc1-c1ccc(C(F)(F)F)cc1 (stereo not drawn) [Co. No. 76] |
| ≤ 30 | O=C(Nc1ccc(C2CCN(C(C(=O)NCc3ccccn3)c3ccccc3)CC2)cc1)c1ccccc1-c1ccc(C(F)(F)F)cc1 (stereo not drawn) [Co. No. 77] |
| 32.5 | O=C(Nc1ccc(C2CCN(C(C(=O)NCC(F)(F)F)c3ccccc3)CC2)cc1)c1ccccc1-c1ccc(C(F)(F)F)cc1 (stereo not drawn) [Co. No. 78] |
| 50 | O=C(Nc1ccc(C2CCN(C(C(=O)NCc3ccccc3)c3ccccc3)CC2)cc1)c1ccccc1-c1ccc(C(F)(F)F)cc1 (stereo not drawn) [Co. No. 79] |
| 356 | O=C(Nc1ccc(C2CCN(C(C(=O)Nc3ccccc3)c3ccccc3)CC2)cc1)c1ccccc1-c1ccc(C(F)(F)F)cc1 (stereo not drawn) [Co. No. 80] |
| 97.5 | CCCNC(=O)C(c1ccccc1)C1CCN(c2ccc(NC(=O)c3ccccc3-c3cccc(Cl)c3)cc2)CC1 (stereo not drawn) [Co. No. 82] |
| 43.3 | CCCNC(=O)C(c1ccccc1)C1CCN(c2ccc(NC(=O)c3ccccc3-c3ccc(Cl)c(Cl)c3)cc2)CC1 (stereo not drawn) [Co. No. 83] |
| 79.4 | CCCNC(=O)C(c1ccccc1)C1CCN(c2ccc(NC(=O)c3ccccc3-c3ccc(F)cc3F)cc2)CC1 (stereo not drawn) [Co. No. 84, 2′,4′-difluoro-N-[4-[4-[2-oxo-1-phenyl-2-(propylamino)ethyl]-1-piperidinyl]phenyl]-[1,1′-biphenyl]-2-carboxamide] |
| 129 | CCNC(=O)C(c1ccccc1)C1CCN(c2ccc(NC(=O)c3ccccc3-c3ccccc3C)cc2)CC1 (stereo not drawn) [Co. No. 85, N-[4-[4-[2-(ethylamino)-2-oxo-1-phenylethyl]-1-piperidinyl]phenyl]-2′-methyl-[1,1′-biphenyl]-2-carboxamide] |
| 84.1 | CCNC(=O)C(c1ccccc1)C1CCN(c2ccc(NC(=O)c3ccccc3-c3cccc(Cl)c3)cc2)CC1 (stereo not drawn) [Co. No. 86] |
| ≤ 30 | CCNC(=O)C(c1ccccc1)C1CCN(c2ccc(NC(=O)c3ccccc3-c3ccc(Cl)c(Cl)c3)cc2)CC1 (stereo not drawn) [Co. No. 88] |
| 363 | CCNC(=O)C(c1ccccc1)C1CCN(c2ccc(NC(=O)c3ccccc3-c3cccc(N)c3)cc2)CC1 (stereo not drawn) [Co. No. 89] |
| 14.1 | CCNC(=O)C(c1ccccc1)C1CCN(c2ccc(NC(=O)c3ccccc3-c3cccc(C)c3)cc2)CC1 (stereo not drawn) [Co. No. 90] |
| 8.69 | CCNC(=O)C(c1ccccc1)C1CCN(c2ccc(NC(=O)c3ccccc3-c3ccc(Cl)cc3)cc2)CC1 (stereo not drawn) [Co. No. 91] |
| 63.2 | CCNC(=O)C(c1ccccc1)C1CCN(c2ccc(NC(=O)c3ccccc3-c3ccc(F)cc3)cc2)CC1 (stereo not drawn) [Co. No. 92] |
| 72.3 | CCNC(=O)C(c1ccccc1)C1CCN(c2ccc(NC(=O)c3ccccc3-c3ccc(OC)cc3)cc2)CC1 (stereo not drawn) [Co. No. 93] |
| 44.1 | CCNC(=O)C(c1ccccc1)C1CCN(c2ccc(NC(=O)c3ccccc3-c3ccc(C)cc3)cc2)CC1 (stereo not drawn) [Co. No. 94] |
| ≤ 30 | CCNC(=O)C(c1ccccc1)C1CCN(c2ccc(NC(=O)c3ccccc3-c3ccc4ccccc4c3)cc2)CC1 (stereo not drawn) [Co. No. 95] |
| 32.1 | CCNC(=O)C(c1ccccc1)C1CCN(c2ccc(NC(=O)c3ccccc3-c3cccc(C(F)(F)F)c3)cc2)CC1 (stereo not drawn) [Co. No. 96] |

| IC50 [nM] | SMILES |
| --- | --- |
| 234 | CCCNC(=O)C(c1ccccc1)C1CCN(c2ccc(NC(=O)c3ccccc3-c3cc(Cl)cc(Cl)c3)cc2)CC1 (stereo not drawn) [Co. No. 97, 3′,5′-dichloro-N-[4-[4-[2-oxo-1-phenyl-2-(propylamino)ethyl]-1-piperidinyl]phenyl]-[1,1′-biphenyl]-2-carboxamide] |
| 57.9 | Nc1cccc(-c2ccccc2C(=O)Nc2ccc(N3CCC(C(C(=O)NCc4ccccc4)c4ccccc4)CC3)cc2)c1 (stereo not drawn) [Co. No. 98] |
| 11.6 | O=C(Nc1ccc(N2CCC(C(C(=O)NCc3ccccc3)c3ccccc3)CC2)cc1)c1ccccc1-c1ccc(Cl)cc1 (stereo not drawn) [Co. No. 100] |
| 207 | COc1ccccc1-c1ccccc1C(=O)Nc1ccc(N2CCC(C(C(=O)NCc3ccccc3)c3ccccc3)CC2)cc1 (stereo not drawn) [Co. No. 101] |
| 18.5 | O=C(Nc1ccc(N2CCC(C(C(=O)NCc3ccccc3)c3ccccc3)CC2)cc1)c1ccccc1-c1ccc(F)cc1 (stereo not drawn) [Co. No. 102] |
| 73.6 | O=C(Nc1ccc(N2CCC(C(C(=O)NCc3ccccc3)c3ccccc3)CC2)cc1)c1ccccc1-c1ccccc1Cl (stereo not drawn) [Co. No. 103] |
| 7.94 | Cc1ccc(-c2ccccc2C(=O)Nc2ccc(N3CCC(C(C(=O)NCc4ccccc4)c4ccccc4)CC3)cc2)cc1 (stereo not drawn) [Co. No. 104] |
| 90.6 | O=C(Nc1ccc(N2CCC(C(C(=O)NCc3ccccc3)c3ccccc3)CC2)cc1)c1ccccc1-c1cccc(C(F)(F)F)c1 (stereo not drawn) [Co. No. 105] |
| 251 | O=C(Nc1ccc(N2CCC(C(C(=O)Nc3ccccc3)c3ccccc3)CC2)cc1)c1ccccc1-c1cc(Cl)cc(Cl)c1 (stereo not drawn) [Co. No. 106] |
| 292 | Cc1ccccc1-c1ccccc1C(=O)Nc1ccc(N2CCC(C(C(=O)Nc3ccccc3)c3ccccc3)CC2)cc1 (stereo not drawn) [Co. No. 107] |
| 188 | O=C(Nc1ccc(N2CCC(C(C(=O)Nc3ccccc3)c3ccccc3)CC2)cc1)c1ccccc1-c1cccc(Cl)c1 (stereo not drawn) [Co. No. 108] |
| 1470 | O=C(Nc1ccc(N2CCC(C(C(=O)Nc3ccccc3)c3ccccc3)CC2)cc1)c1ccccc1-c1ccccc1C(F)(F)F (stereo not drawn) [Co. No. 109] |
| 158 | O=C(Nc1ccc(N2CCC(C(C(=O)Nc3ccccc3)c3ccccc3)CC2)cc1)c1ccccc1-c1ccc(Cl)c(Cl)c1 (stereo not drawn) [Co. No. 110] |
| 221 | Nc1cccc(-c2ccccc2C(=O)Nc2ccc(N3CCC(C(C(=O)Nc4ccccc4)c4ccccc4)CC3)cc2)c1 (stereo not drawn) [Co. No. 111] |
| 434 | Cc1cccc(-c2ccccc2C(=O)Nc2ccc(N3CCC(C(C(=O)Nc4ccccc4)c4ccccc4)CC3)cc2)c1 (stereo not drawn) [Co. No. 112] |
| 115 | O=C(Nc1ccc(N2CCC(C(C(=O)Nc3ccccc3)c3ccccc3)CC2)cc1)c1ccccc1-c1ccc(Cl)cc1 (stereo not drawn) [Co. No. 113] |
| 836 | O=C(Nc1ccc(N2CCC(C(C(=O)Nc3ccccc3)c3ccccc3)CC2)cc1)c1ccccc1-c1ccc(F)cc1 (stereo not drawn) [Co. No. 114] |
| 1710 | O=C(Nc1ccc(N2CCC(C(C(=O)Nc3ccccc3)c3ccccc3)CC2)cc1)c1ccccc1-c1ccccc1Cl (stereo not drawn) [Co. No. 115] |
| 385 | COc1ccc(-c2ccccc2C(=O)Nc2ccc(N3CCC(C(C(=O)Nc4ccccc4)c4ccccc4)CC3)cc2)cc1 (stereo not drawn) [Co. No. 116] |
| 121 | Cc1ccc(-c2ccccc2C(=O)Nc2ccc(N3CCC(C(C(=O)Nc4ccccc4)c4ccccc4)CC3)cc2)cc1 (stereo not drawn) [Co. No. 117] |
| 127 | O=C(Nc1ccc(N2CCC(C(C(=O)Nc3ccccc3)c3ccccc3)CC2)cc1)c1ccccc1-c1cccc(C(F)(F)F)c1 (stereo not drawn) [Co. No. 118] |
| 175 | COC(=O)C(c1ccccc1)N1CCCN(c2ccc(NC(=O)c3ccccc3-c3ccc(C(F)(F)F)cc3)cc2)CC1 (stereo not drawn) [Co. No. 119] |
